From patent US20230414557A1, “NEW THERAPY CONCEPT FOR THE TREATMENT OF CORONA INFECTIONS, ESPECIALLY COVID-19 INFECTIONS” (priority 2020, published 2023)

Experiments:
hydrogen peroxide (H2O2) = assay: production of hydrogen peroxide; format: cell-based; conditions: even at lower concentrations and in the therapeutic range
IL-8 (interleukin-8) = assay: production of IL-8 in human monocytes of volunteers; format: cell-based; conditions: 1,8-cineole alone
[1] = cited from earlier work
COVID-19 [2] = assay: thrombocytes from patients suffering from COVID-19 incubated with 1,8-cineole; format: cell-based, human; conditions: thrombocytes from COVID-19 patients incubated with 1,8-cineole
Excerpt: This antiviral effect of 1,8-cineole in COVID-19 infections is completely unexpected.

[3] = tested on: superoxide dismutases (SOD); assay: activity of superoxide dismutases; format: cell-based
corona viruses = format: cell-based, human
NO-production = NO-production in stimulated human monocytes in vitro; format: cell-based; conditions: 20 hours
IL-1beta = assay: LPS-stimulated production of IL-1beta in human monocytes in vitro (ELISA); format: cell-based; conditions: for IL-1beta / effect vs. control inhibition (%): LPS-stimulated human monocytes
Experimental: In cell culture supernatants, the production of IL-1beta is determined by ELISA (Cayman Chemical, Ann Arbor, Michigan, USA).

[4] = tested on: TNF-alpha (tumor necrosis factor-alpha); assay: production of TNF-alpha in human monocytes of volunteers; format: cell-based; conditions: 1,8-cineole alone
[5] = tested on: superoxide production (O2^−-production); assay: PMA-stimulated superoxide production (O2−-production) of human monocytes in vitro, INT formazan; format: cell-based; conditions: RPMI-1640, 20 hours
COVID-19 [6] = conditions: human, in vivo; cited from earlier work
[7] = 1,8-cineole 0.0015 μg/ml (10^−8 mol/l)
[8] = 1,8-cineole 1.2 μg/ml (8 × 10^−6 mol/l)
[9] = 1,8-cineole 1.5 μg/ml (10^−5 mol/l)
[10] = 1,8-cineole 3.0 μg/ml (2 × 10^−5 mol/l)

## CC12CCC(CC1)C(C)(C)O2 [1,8-cineole, 1,3,3-trimethyl-2-oxabicyclo[2.2.2]octane]
Hydrogen peroxide (H2O2)
  production of H2O2: inhibits
IL-8 (interleukin-8)
  production of IL-8: significant inhibitory effect
[1]
  solubility in water: insoluble in water
COVID-19 [2]
  course of infection, especially hypercytokinemia: prevented or attenuated
[3]
  superoxide dismutase activity: partially inhibited
Corona viruses
  outbreak of infection, especially hypercytokinemia: prevented or reduced
Corona viruses; healthy thrombocytes incubated with COVID-19, subsequently incubation with 1,8-cineole
  virus replication and production of hyperinflammatory cytokines in thrombocytes: inhibited
NO-production; low subtherapeutic concentrations of 1,8-cineole
  NO-production: inhibit NO-production
NO-production; therapeutic dose range of 1,8-cineole
  NO-production: strong or significant stimulatory effects on NO-production
IL-1beta; 10^−6 mol/l, compared with the control
  monocyte IL-1beta production, result in words: significantly inhibited
IL-1beta; 10^−6 mol/l, 20 hours
  IL-1beta: 3548 ± 600 pg/5 × 10^−4 cells
  effect vs. control inhibition (%): 32.4 ± 17%
[4]
  production of TNF-alpha: significant inhibitory effect
[5]; [7]
  INT-formazan: 5364 ± 229 nmol/10^5
  comparison to control (%): +27.6 ± 4%
[5]; [8]
  INT-formazan: 4099 ± 234 nmol/10^5
  comparison to control (%): −2.5 ± 6%
[5]; [9]
  INT-formazan: 2438 ± 389 nmol/10^5
  comparison to control (%): −42 ± 16%
[5]; [10]
  INT-formazan: 634 ± 139 nmol/10^5
  comparison to control (%): −84.9 ± 22%

## Tocilizumab: monoclonal antibody approved for rheumatoid arthritis and cytokine release syndrome
COVID-19 [6]
  efficacy in COVID-19: ineffective

## C[C@@H]1C[C@H]2[C@@H]3CCC4=CC(=O)C=C[C@]4(C)[C@@]3(F)[C@@H](O)C[C@]2(C)[C@@]1(O)C(=O)CO [dexamethasone, 9-fluoro-16alpha-methylprednisolone]
IL-1beta; dex. 10^−9 mol/l
  IL-1beta: 2655 ± 546 pg/5 × 10^−4 cells
  effect vs. control inhibition (%): 49.5 ± 20%
IL-1beta; dex. 10^−12 mol/l
  IL-1beta: 5245 ± 1027 pg/5 × 10^−4 cells
  effect vs. control inhibition (%): 0.1 ± 19%

## CCN(CC)CCCC(C)Nc1ccnc2cc(Cl)ccc12 (stereo not shown) [Chloroquine]
COVID-19 [6]
  efficacy in COVID-19: no evidence of efficacy

## CCN(CCO)CCCC(C)Nc1ccnc2cc(Cl)ccc12 (stereo not shown) [hydroxychloroquine]
COVID-19 [6]
  efficacy in COVID-19: no evidence of efficacy
